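Each compound was tested at five concentrations against cells in 96-well plates for 48 hours. GI50: concentration for 50% inhibition of growth.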 Activity calls are given as the source filed them. Cut-off read from the data, not from the text of the source: active = GI50 up to about 1.1 µM and inactive = higher.

Among the test systems are OVCAR-8; COLO 205; HT-29; MCF7; CCRF-CEM; OVCAR-4; HOP-62; TK-10; NCI-H23; NCI-H522; HL-60; OVCAR-5; Malme-3M; A498; 786-0; NCI-H226; ACHN; SK-MEL-2; HCC 2998; SR.
Common to all, as to assay: NCI anticancer screen, dose series, 48 h

Regarding `CN(C)CN1C(=O)/C(=N\n2c(S)nnc2-c2ccncc2)c2ccccc21`, the GI50 is 23.7 µM (inactive) with OVCAR-8; 38.3 µM (inactive) in the assay on COLO 205; 22.2 µM (inactive) in the assay with HT-29; 31.3 µM (inactive) with MCF7; 9.38 µM (inactive) in the assay with CCRF-CEM; 17.1 µM (inactive) in the assay with OVCAR-4. Also, the GI50 was 24.8 µM (inactive) with HOP-62; 41.9 µM (inactive) with TK-10; 37.8 µM (inactive) in the assay on NCI-H23; 16.6 µM (inactive) in the assay on NCI-H522; 11.7 µM (inactive) in the assay with HL-60; > 100 µM (inactive) in the assay on OVCAR-5. The GI50 in the assay with Malme-3M was > 100 µM (inactive); in the assay on A498, > 100 µM (inactive); with 786-0 it was 16.9 µM (inactive); in the assay with NCI-H226, > 100 µM (inactive); in the assay on ACHN, 48.1 µM (inactive); in the assay with SK-MEL-2, 21.4 µM (inactive).
In the case of `CS(=O)(=O)N/N=C/CN1C(=O)c2ccccc2C1=O`, the GI50 in the assay with OVCAR-8, in the assay with COLO 205, in the assay on HT-29, in the assay on CCRF-CEM, with OVCAR-4 and in the assay on HOP-62 was > 100 µM (inactive) each time. In addition, the GI50 in the assay with TK-10, in the assay on NCI-H23, in the assay with NCI-H522, with HL-60, in the assay with OVCAR-5 and in the assay on Malme-3M was > 100 µM (inactive) throughout. Further, the GI50 with A498, with 786-0, with NCI-H226, in the assay with ACHN, with HCC 2998 and in the assay with SK-MEL-2 was > 100 µM (inactive) each time. Also, the GI50 in the assay with SR was > 100 µM (inactive).
As for `COC(=O)c1cc2c3c(cc(N(C)C)c2[nH]1)N(C(=O)c1cc2cc(OC)c(OC)c(OC)c2[nH]1)CC3CCl` (configuration not stated), the GI50 in the assay on COLO 205 was 0.00557 µM (active); in the assay with HT-29 it was 0.25 µM (active); in the assay with MCF7 it was < 0.0025 µM (active); in the assay with CCRF-CEM it was 0.00403 µM (active); in the assay with OVCAR-4, 0.00745 µM (active); in the assay on HOP-62 it was 0.00262 µM (active). Also, the GI50 in the assay with TK-10 was 0.00968 µM (active); with NCI-H23, 0.00381 µM (active); with NCI-H522, 0.00279 µM (active); in the assay on OVCAR-5 it was 0.00776 µM (active); in the assay on Malme-3M, 0.00463 µM (active); in the assay on A498 it was 0.00443 µM (active). For the same compound, the GI50 with 786-0 is < 0.0025 µM (active); with NCI-H226 it was 0.00362 µM (active); in the assay with ACHN, < 0.0025 µM (active); in the assay with HCC 2998, 0.00948 µM (active); with SK-MEL-2, 0.00762 µM (active).
As to `COc1cc(C2c3cc4c(cc3[C@@H](Oc3ccc(F)cc3)C3COC(=O)[C@H]23)OCO4)cc(OC)c1O` (some centres not stated), the GI50 was 0.447 µM (active) with OVCAR-8; 1.75 µM (inactive) with COLO 205; 0.284 µM (active) in the assay with HT-29; 0.434 µM (active) in the assay on MCF7; 0.368 µM (active) with CCRF-CEM; 6.79 µM (inactive) in the assay with OVCAR-4. Also, the GI50 in the assay with HOP-62 is 0.267 µM (active); in the assay with NCI-H23, 0.335 µM (active); with NCI-H522 it was 0.217 µM (active); in the assay with HL-60, 0.341 µM (active); in the assay on OVCAR-5, > 100 µM (inactive); with Malme-3M, 0.653 µM (active). The GI50 with A498 is 0.236 µM (active); with NCI-H226, 0.417 µM (active); in the assay on HCC 2998, 2.28 µM (inactive).
Consider `CC(C)=CC(O)C(C(O)CCC1(C)OCCO1)S(=O)(=O)c1ccccc1` (configuration not stated), for which the GI50 in the assay with OVCAR-8, in the assay on COLO 205, in the assay with MCF7, with CCRF-CEM, in the assay on OVCAR-4 and in the assay with HOP-62 was > 100 µM (inactive) each time. The GI50 in the assay on TK-10, with NCI-H23, in the assay with NCI-H522, with OVCAR-5, with Malme-3M and in the assay with A498 was > 100 µM (inactive) throughout. For the same compound, the GI50 with 786-0, with NCI-H226, with ACHN, in the assay with HCC 2998 and with SK-MEL-2 was > 100 µM (inactive) each time.
As for `CC(=O)c1cc2sc3ccccc3c2[nH]1`, the GI50 is 61.2 µM (inactive) in the assay on OVCAR-8; > 100 µM (inactive) in the assay on COLO 205; > 100 µM (inactive) in the assay with HT-29; > 100 µM (inactive) with MCF7; > 100 µM (inactive) in the assay on OVCAR-4; > 100 µM (inactive) in the assay with HOP-62. Besides, the GI50 with TK-10, in the assay with NCI-H23, in the assay on NCI-H522, in the assay on OVCAR-5, with Malme-3M and in the assay with A498 was > 100 µM (inactive) throughout. Moreover, the GI50 in the assay with 786-0, with ACHN, with HCC 2998 and in the assay on SK-MEL-2 was > 100 µM (inactive) each time.
Take `COC(=O)[C@]1(C)CCCn2c(=O)n(-c3ccccc3)c(=O)n21`: the GI50 with OVCAR-8, with COLO 205, in the assay with HT-29, in the assay on MCF7, in the assay with CCRF-CEM and with OVCAR-4 was > 100 µM (inactive) each time. The GI50 in the assay on HOP-62, with TK-10, in the assay with NCI-H23, in the assay with NCI-H522, in the assay with OVCAR-5 and in the assay on A498 was > 100 µM (inactive) in each case. The GI50 with 786-0 was > 100 µM (inactive); with NCI-H226 it was 68.1 µM (inactive); in the assay on ACHN it was > 100 µM (inactive); in the assay on HCC 2998, > 100 µM (inactive); with SK-MEL-2 it was > 100 µM (inactive).
Consider `CC1(O)C=CC(=O)C=C1`, for which the GI50 was 25.3 µM (inactive) in the assay on OVCAR-8; 34.8 µM (inactive) in the assay on COLO 205; 38.4 µM (inactive) in the assay with HT-29; 22.2 µM (inactive) in the assay with CCRF-CEM; 40.9 µM (inactive) with OVCAR-4; > 52.6 µM (inactive) in the assay with HOP-62. For the same compound, the GI50 with TK-10 is 44.1 µM (inactive); in the assay with NCI-H23, 30.3 µM (inactive); in the assay with NCI-H522, 18.6 µM (inactive); in the assay on HL-60, 16.4 µM (inactive); in the assay with OVCAR-5, 98.2 µM (inactive); in the assay on Malme-3M it was 20.3 µM (inactive). For the same compound, the GI50 in the assay on A498 is 37.6 µM (inactive); with 786-0, 20.7 µM (inactive); in the assay on NCI-H226, > 100 µM (inactive); in the assay on ACHN it was 27.5 µM (inactive); in the assay on HCC 2998 it was > 71.6 µM (inactive); in the assay with SK-MEL-2, 24.7 µM (inactive). Moreover, the GI50 in the assay on SR is 16.2 µM (inactive).
For `CN(C)CCNC(=O)c1cccc2cc3cc(O)ccc3nc12`, the GI50 was 0.796 µM (active) in the assay with OVCAR-8; 0.897 µM (active) in the assay with COLO 205; 1.02 µM (active) in the assay with HT-29; 0.473 µM (active) with MCF7; 0.59 µM (active) with CCRF-CEM; 2 µM (inactive) in the assay with OVCAR-4. The GI50 in the assay on HOP-62 is 1.06 µM (active); with NCI-H23 it was 1.24 µM (inactive); with HL-60, 0.355 µM (active); with OVCAR-5 it was 1.46 µM (inactive); in the assay on Malme-3M it was 1.22 µM (inactive); in the assay with A498, 0.782 µM (active). In addition, the results for the GI50 in the assay with NCI-H226, with HCC 2998 and in the assay on SK-MEL-2 were 0.621 µM (active), 2.2 µM (inactive) and 2.14 µM (inactive), respectively.
Turning to `Cc1cc(C)c(S(=O)(=O)N(CCCCCCN)OCCCN)c(C)c1`, the GI50 is 14 µM (inactive) with OVCAR-8; 17.3 µM (inactive) with COLO 205; 15.1 µM (inactive) in the assay with HT-29; 19.8 µM (inactive) in the assay with MCF7; 16.1 µM (inactive) with CCRF-CEM; 20.2 µM (inactive) in the assay on OVCAR-4. The GI50 in the assay with HOP-62 was 20.9 µM (inactive); in the assay on TK-10 it was 15.4 µM (inactive); in the assay on NCI-H23, 17.1 µM (inactive); in the assay on NCI-H522, 13 µM (inactive); in the assay on HL-60, 12.3 µM (inactive); with OVCAR-5, 21.7 µM (inactive). In addition, the GI50 in the assay with Malme-3M is 10.3 µM (inactive); in the assay with 786-0, 16 µM (inactive); with NCI-H226, 19.6 µM (inactive); in the assay with ACHN, 17.2 µM (inactive); in the assay with HCC 2998, 16.6 µM (inactive); with SK-MEL-2, 20.2 µM (inactive).
On to `O=C1c2cccc3cccc(c23)C(=O)N1O`, for which the GI50 in the assay on OVCAR-8 is 56.6 µM (inactive); with COLO 205, > 100 µM (inactive); in the assay on HT-29 it was 51.8 µM (inactive); in the assay with MCF7 it was 37.5 µM (inactive); in the assay with CCRF-CEM, 18.5 µM (inactive); in the assay with OVCAR-4 it was 57.8 µM (inactive). The GI50 is > 100 µM (inactive) in the assay on TK-10; 74.8 µM (inactive) in the assay on NCI-H23; 37.2 µM (inactive) in the assay with NCI-H522; > 100 µM (inactive) in the assay with HL-60; > 100 µM (inactive) in the assay with OVCAR-5; > 100 µM (inactive) in the assay with Malme-3M. The GI50 is > 100 µM (inactive) in the assay with A498; 49.9 µM (inactive) with 786-0; 71.8 µM (inactive) in the assay with ACHN; 75 µM (inactive) with HCC 2998; 86.5 µM (inactive) with SK-MEL-2.
As for `COC(=O)C#CCC1CCCC1C1SCCS1` (configuration not stated), the GI50 in the assay on OVCAR-8 was 61.1 µM (inactive); in the assay on COLO 205, > 100 µM (inactive); in the assay with HT-29, > 100 µM (inactive); in the assay with CCRF-CEM, 29.2 µM (inactive); in the assay on OVCAR-4, 71.4 µM (inactive); in the assay with HOP-62 it was > 100 µM (inactive). Moreover, the GI50 with TK-10 was > 100 µM (inactive); in the assay with NCI-H23 it was > 100 µM (inactive); in the assay on NCI-H522, 28 µM (inactive); with HL-60 it was 38.1 µM (inactive); with OVCAR-5, > 100 µM (inactive); in the assay with Malme-3M, > 100 µM (inactive). Moreover, the GI50 in the assay on A498 is > 100 µM (inactive); with 786-0, > 100 µM (inactive); with NCI-H226 it was > 100 µM (inactive); in the assay with ACHN it was 34 µM (inactive); with HCC 2998 it was > 100 µM (inactive); with SK-MEL-2 it was 26.2 µM (inactive). In the assay on SR, the GI50 is 15.8 µM (inactive).

(Values after ChEMBL document CHEMBL1201862, “PubChem BioAssay data set” (2004).)
